Measured values as given in paper PMC5643462, “Encrypted Antimicrobial Peptides from Plant Proteins” (Scientific Reports, 2017).
In brackets after ≈: the same amount, converted by molar mass. No end group written: not given here.

How the values were obtained:
[1] = tested on: Bacillus cereus; experiment: Microbicidal activity (minimal killing concentration), plating on agar; format: cell-based, Bacillus cereus ATCC 14579; settings: 10 µL of MIC and raising concentrations up to 256 µM plated on Mueller-Hinton agar; 37 °C, 24 h; no growth; mean ± SD, 3 biological replicates
Procedure: (§1) The microbicidal activity of the IAPS was also evaluated. […] YPD agar and Mueller-Hinton agar were used for fungi/yeasts and bacteria, respectively. Meanwhile, susceptibility microplates were incubated again to evaluate if there would be any growing after a longer period. For both approaches, the minimal killing concentration (MKC) was defined as the concentration that no growth was observed after incubation. Three biological replicates were performed for each test.
(§2) Supplementary Material 07, Table S5
(§3) Table S5. Microorganisms and growth conditions.
(§4) Microorganisms Incubation Incubation Starting cell Growth Medium

[2] = tested on: Bacillus subtilis; experiment: as above; format: cell-based, Bacillus subtilis ATCC 23857; settings: 10 µL of MIC and raising concentrations up to 256 µM plated on Mueller-Hinton agar; 37 °C, 24 h; no growth; mean ± SD, 3 biological replicates
Procedure: as §1, §2, §3, §4

[3] = tested on: Escherichia coli; experiment: microbe, parasite or virus in culture
Procedure: (§5) The susceptibility test of microorganisms was performed to evaluate the inhibitory activity of the IAPs. Protocols M7-A10[50], M27-A3[51] and M38-A2[52] from Clinical & Laboratory Standards Institute (CLSI) were used for bacteria, yeasts and filamentous fungi tests, respectively. Briefly, different concentration of IAPs (256-0.5 µM) were tested against 16 microorganisms, in a final volume of 100 µL. Media conditions, final cell concentration and incubation conditions are presented in Supplementary Material 07, Table S5. Three biological repetitions, with 2 technical replicates each, were performed for each test, on polystyrene flat-bottom 96 wells microplates. The minimum inhibitory concentration (MIC) was defined as the concentration that no cells/hyphae were detected when visualized by optical microscopy.
as §2, §3

[4] = tested on: Erwinia carotovora; experiment: microbe, parasite or virus in culture; settings: 24 h
Procedure: as §5, §2, §3

[5] = tested on: Staphylococcus aureus; experiment: microbe, parasite or virus in culture
Procedure: as §5, §2, §3

[6] = tested on: Pseudomonas aeruginosa; experiment: microbe, parasite or virus in culture; settings: Pseudomonas aeruginosa, ATCC27853, 24 h, read-out: Minimum inhibitory concentration, Pseudomonas aeruginosa
Procedure: as §5, §2, §3

[7] = tested on: Pseudomonas syringae pv. tabaci; experiment: microbe, parasite or virus in culture; settings: 24 h
Procedure: as §5, §2, §3

[8] = tested on: Bacillus subtilis; experiment: microbe, parasite or virus in culture
Procedure: as §5, §2, §3

[9] = tested on: Bacillus cereus; experiment: microbe, parasite or virus in culture
Procedure: as §5, §2, §3

[10] = tested on: Xanthomonas campestris; experiment: microbe, parasite or virus in culture; settings: 24 h
Procedure: as §5, §2, §3

[11] = tested on: Erwinia carotovora; experiment: Microbicidal activity (minimal killing concentration), plating on agar; format: cell-based; settings: 10 µL of MIC and raising concentrations up to 256 µM plated on Mueller-Hinton agar; 28 °C, 24 h; no growth; mean ± SD, 3 biological replicates
Procedure: as §1, §2, §3, §4
(§6) Temperature (°C) Time (h) concentration
(§7) Erwinia carotovora 28 24 5.0 x 10 5 Mueller -Hinton
(§8) Xanthomonas campestris pv. citri 28 24 5.0 x 10 5 Mueller -Hinton
(§9) Pseudomonas syringae pv. tabaci 28 24 5.0 x 10 5 Mueller -Hinton

[12] = tested on: Pseudomonas syringae pv. tabaci; experiment: as above; format: cell-based; settings: 10 µL of MIC and raising concentrations up to 256 µM plated on Mueller-Hinton agar; 28 °C, 24 h; no growth; mean ± SD, 3 biological replicates
Procedure: as §1, §2, §3, §4, §6, §7, §8, §9

[13] = tested on: Escherichia coli; experiment: as above; format: cell-based, Escherichia coli ATCC 25922; settings: 10 µL of MIC and raising concentrations up to 256 µM plated on Mueller-Hinton agar; 37 °C, 24 h; no growth; mean ± SD, 3 biological replicates
Procedure: as §1, §2, §3, §4

[14] = tested on: Staphylococcus aureus; experiment: as above; format: cell-based, Staphylococcus aureus ATCC 25923; settings: 10 µL of MIC and raising concentrations up to 256 µM plated on Mueller-Hinton agar; 37 °C, 24 h; no growth; mean ± SD, 3 biological replicates
Procedure: as §1, §2, §3, §4, §6, §7, §8, §9

[15] = tested on: Pseudomonas aeruginosa; experiment: as above; format: cell-based, Pseudomonas aeruginosa ATCC 27853; settings: 10 µL of MIC and raising concentrations up to 256 µM plated on Mueller-Hinton agar; 37 °C, 24 h; no growth; mean ± SD, 3 biological replicates
Procedure: as §1, §2, §3, §4

[16] = tested on: Xanthomonas campestris; experiment: as above; format: cell-based, Xanthomonas campestris pv. citri; settings: 10 µL of MIC and raising concentrations up to 256 µM plated on Mueller-Hinton agar; 28 °C, 24 h; no growth; mean ± SD, 3 biological replicates
Procedure: as §1, §2, §3, §4, §6, §7, §8, §9

[17] = tested on: Fusarium solani; settings: RPMI 1640 pH 7.0; 28 °C, 48 h; start 2.5 x 10 3; 256-0.5 µM; mean ± SD of 3 biological repetitions (SD 0 not displayed); N/A = no antimicrobial activity observed
Procedure: as §5, §2, §3

[18] = tested on: Rhizoctonia solani; settings: RPMI 1640 pH 7.0; 28 °C, 48 h; start 2.5 x 10 3; 256-0.5 µM; mean ± SD of 3 biological repetitions (SD 0 not displayed); N/A = no antimicrobial activity observed
Procedure: as §5, §2, §3

[19] = tested on: Fusarium oxysporum f.sp. vasinfectum; settings: RPMI 1640 pH 7.0; 28 °C, 72 h; start 2.5 x 10 3; 256-0.5 µM; mean ± SD of 3 biological repetitions (SD 0 not displayed); N/A = no antimicrobial activity observed
Procedure: as §5, §2, §3

[20] = tested on: Trichoderma asperellum; experiment: microbe, parasite or virus in culture; settings: RPMI 1640 pH 7.0; 28 °C, 48 h; start 2.5 x 10 3; 256-0.5 µM; mean ± SD of 3 biological repetitions (SD 0 not displayed); N/A = no antimicrobial activity observed
Procedure: as §5, §2, §3

[21] = tested on: Candida albicans; experiment: microbe, parasite or virus in culture; settings: ATCC 90028; RPMI 1640 pH 7.0; 37 °C, 48 h; start 2.5 x 10^3 cells; 256-0.5 µM; mean ± SD of 3 biological repetitions (SD 0 not displayed); no cells seen by optical microscopy; N/A = no antimicrobial activity observed
Procedure: as §5, §2, §3

[22] = tested on: Fusarium oxysporum; experiment: microbe, parasite or virus in culture; settings: RPMI 1640 pH 7.0; 28 °C, 48 h; start 2.5 x 10 3; 256-0.5 µM; mean ± SD of 3 biological repetitions (SD 0 not displayed); N/A = no antimicrobial activity observed
Procedure: as §5, §2, §3

[23] = tested on: Ramularia areola; experiment: microbe, parasite or virus in culture; settings: RPMI 1640 pH 7.0; 25 °C, 120 h; start 2.5 x 10 3; 256-0.5 µM; mean ± SD of 3 biological repetitions (SD 0 not displayed); N/A = no antimicrobial activity observed
Procedure: as §5, §2, §3

[24] = tested on: Cryptococcus neoformans; experiment: microbe, parasite or virus in culture; settings: ATCC 28957; RPMI 1640 pH 7.0; 37 °C, 72 h; start 2.5 x 10^3 cells; 256-0.5 µM; mean ± SD of 3 biological repetitions (SD 0 not displayed); N/A = no antimicrobial activity observed
Procedure: as §5, §2, §3

[25] = tested on: human red blood cells; experiment: Cytotoxicity: hemolysis of human red blood cells; format: cell-based; settings: SC50 = IAP concentration that at least 50% of red blood cells remain intact; 128 µM–0.5 µM tested; PBS, 30 minutes, 37 °C; absorbance 540 nm
Procedure: The cytotoxicity of the selected IAPS was performed using human red blood cells in strict accordance with relevant guidelines and regulations (Ethical committee – UnB # 1.939.989). Different concentrations of IAPs (128 µM–0.5 µM) were incubated with a final concentration of 2.5 × 10^5 red blood cells.mL^−1. Briefly, 100 µL of red blood cells was incubated with 100 µL of different concentrations of each IAP, prepared in PBS, for 30 minutes at 37 °C, with constant shaking at 120 rpm. PBS and Triton X-100 0.1% (v/v) were used as negative and positive controls, respectively. After incubation, the solution was centrifuged at 900 × g for five minutes followed by transferring 50 µL of the supernatant to flat-bottom polystyrene 96-well micro plates containing 50 µL of PBS. Microplate reading was performed at a BioTek Multireader, using a wavelength of 540 nm. All tests were performed in 3 biological replicates, composed of 3 biological repetitions each. The obtained data was subtracted by the negative control and relative to the positive control, defined as 100% lysis.

[26] = Mueller-Hinton, 28 °C, start 5.0 x 10^5 cells, 256-0.5 µM, mean ± SD of 3 biological repetitions (SD 0 not displayed), N/A = no antimicrobial activity observed

CNC(C)C1CCC(N)C(OC2C(N)CC(N)C(OC3OCC(C)(O)C(NC)C3O)C2O)O1 (centres unmarked) [Gentamicin]
Minimum microbicidal concentration, Bacillus cereus [1]: 8.37 ± 0.0 µM | Minimum microbicidal concentration, Bacillus subtilis [2]: 0.033 ± 0.0 µM | MIC ([3]; Escherichia coli, ATCC25922, 24 h, read-out: Minimum inhibitory concentration, Escherichia coli): 0.52 µM (≈ 0.248 µg/mL) | MIC ([4]; Pectobacterium carotovorum, read-out: Minimum inhibitory concentration, Erwinia carotovora): 0.53 µM (≈ 0.253 µg/mL) | MIC ([5]; Staphylococcus aureus, ATCC25923, 24 h, read-out: Minimum inhibitory concentration, Staphylococcus aureus): 0.26 µM (≈ 0.124 µg/mL) | MIC [6]: 0.13 µM (≈ 0.0621 µg/mL) | MIC ([7]; Pseudomonas syringae, read-out: Minimum inhibitory concentration, Pseudomonas syringae pv. tabaci): 0.52 µM (≈ 0.248 µg/mL) | MIC ([8]; Bacillus subtilis, ATCC23857, 24 h, read-out: Minimum inhibitory concentration, Bacillus subtilis): 0.033 µM (≈ 0.0158 µg/mL) | MIC ([9]; Bacillus cereus, ATCC14579, 24 h, read-out: Minimum inhibitory concentration, Bacillus cereus): 8.37 µM (≈ 4 µg/mL) | MIC ([10]; Xanthomonas campestris, read-out: Minimum inhibitory concentration, Xanthomonas campestris): 0.53 µM (≈ 0.253 µg/mL) | Minimum microbicidal concentration, Erwinia carotovora [11]: 0.53 ± 0.0 µM | Minimum microbicidal concentration, Pseudomonas syringae pv. tabaci [12]: 0.52 ± 0.0 µM | Minimum microbicidal concentration, Escherichia coli [13]: 0.52 ± 0.0 µM | Minimum microbicidal concentration, Staphylococcus aureus [14]: 0.52 ± 0.0 µM | Minimum microbicidal concentration, Pseudomonas aeruginosa [15]: 0.52 ± 0.0 µM | Minimum microbicidal concentration, Xanthomonas campestris [16]: 0.53 ± 0.0 µM

FFGHIWHGARTLFRDVFA-NH2 [Cs02]
Minimum inhibitory concentration, Fusarium solani [17]: 8.0 µM | Minimum inhibitory concentration, Rhizoctonia solani [18]: 32.0 µM | Minimum inhibitory concentration, Fusarium oxysporum f.sp. vasinfectum [19]: 13.33 ± 4.61 µM | Minimum inhibitory concentration, Escherichia coli ([3]; ATCC 25922, Mueller-Hinton, 37 °C, 24 h, start 5.0 x 10^5 cells, 256-0.5 µM, mean ± SD of 3 biological repetitions (SD 0 not displayed), N/A = no antimicrobial activity observed): 8.0 µM | Minimum inhibitory concentration, Erwinia carotovora [4, 26]: 32.0 µM | Minimum inhibitory concentration, Staphylococcus aureus ([5]; ATCC 25923, Mueller-Hinton, 37 °C, 24 h, start 5.0 x 10^5 cells, 256-0.5 µM, mean ± SD of 3 biological repetitions (SD 0 not displayed), N/A = no antimicrobial activity observed): 8.0 µM | Minimum inhibitory concentration, Trichoderma asperellum [20]: 8.0 µM | Minimum inhibitory concentration, Candida albicans [21]: 32.0 µM | Minimum inhibitory concentration, Pseudomonas syringae pv. tabaci [7, 26]: 4.0 µM | Minimum inhibitory concentration, Bacillus subtilis ([8]; ATCC 23857, Mueller-Hinton, 37 °C, 24 h, start 5.0 x 10^5 cells, 256-0.5 µM, mean ± SD of 3 biological repetitions (SD 0 not displayed), N/A = no antimicrobial activity observed): 3.33 ± 1.15 µM | Minimum inhibitory concentration, Bacillus cereus ([9]; ATCC 14579, Mueller-Hinton, 37 °C, 24 h, start 5.0 x 10^5 cells, 256-0.5 µM, mean ± SD of 3 biological repetitions (SD 0 not displayed), N/A = no antimicrobial activity observed): 64.0 µM | Minimum inhibitory concentration, Fusarium oxysporum [22]: 16.0 µM | Minimum inhibitory concentration, Ramularia areola [23]: 16.0 µM | Minimum inhibitory concentration, Xanthomonas campestris ([10]; pv. citri, Mueller-Hinton, 28 °C, start 5.0 x 10^5 cells, 256-0.5 µM, mean ± SD of 3 biological repetitions (SD 0 not displayed), N/A = no antimicrobial activity observed): 32.0 µM | Minimum inhibitory concentration, Cryptococcus neoformans [24]: 32.0 µM | Hemolytic activity of human red blood cells (%) SC50 [25]: >128 µM
